{
  "source": "patent US10933002B2",
  "about": "“Preservation booster” (DSM IP ASSETS B.V., priority 2017, dated 2021)",
  "test_system": "Escherichia coli",
  "experiment": "antimicrobial efficacy in analogy to the regulatory challenge test method (NF EN ISO11930)",
  "format": "cell-based",
  "settings": "0.2 wt.-% test solution in physiological serum; 24 h after contamination; 22° C.; initial contamination 580000 cfu/ml",
  "description": "The term “antimicrobial activity” (or “antimicrobial effect”) as used herein means a capability of killing and/or inhibiting the growth of pathogenic or unwanted bacteria, such as in particular Escherichia coli (Escherichia coli ATCC 8739). The applied measuring method is NF EN IS011930. The antimicrobial efficacy is assessed in analogy to the regulatory challenge test method (NF EN ISO11930). Thus, solutions of the respective active(s) in ethanol are prepared and further dissolved in physiological serum with 0.85 wt.-% NaCl in the concentrations as outlined in table 1 under sterile conditions. Samples containing phytantriol were solubilized in physiological serum supplemented with 10 wt.-% ethanol, samples containing erythrulose only were solubilized in physiological serum supplemented with 1 wt.-% ethanol. The solutions of the active(s) were deposed in 96-deep well plates (1.6 ml/well). The wells are contaminated with the Escherichia coli at 1.5*10^5 to 1*10^6 cfu/ml to obtain the initial contamination as outlined in table 1. After the contamination, each well was thoroughly mixed to ensure a homogeneous distribution of E. coli. Then each plate was incubated at 22° C. for 24 h. The counting of the (remaining) population is carried out 24 h after contamination.",
  "data": [
    {"smiles": "O=C(CO)[C@H](O)CO", "note": "(racemic) [erythrulose]", "values": [
      {"measurement": "Escherichia coli colony count", "result": 33700, "unit": "cfu/ml"},
      {"measurement": "Log reduction", "result": "−1.236"}
    ]},
    {"smiles": "CC(C)CCCC(C)CCCC(C)CCCC(C)(O)C(O)CO", "note": "(stereo not shown) [phytantriol, 3,7,11,15-tetramethyl-1,2,3-hexadecanetriol]", "values": [
      {"measurement": "Escherichia coli colony count", "result": 1000, "unit": "cfu/ml"},
      {"measurement": "Log reduction", "result": "−2.763"}
    ]}
  ]
}
